# Experimental data published in US10759816B2, “Heterocyclic compounds as RSV inhibitors” (Enanta Pharmaceuticals, Inc., priority 2016, dated 2020).
# System: genotype A, "Long" strain RSV
# Assay: RSV-A in vitro cytoprotection assay in HEp-2 cells (ATPlite readout of cell viability)
# Type: cell-based, Human respiratory syncytial virus
# Details: human respiratory syncytial virus, HEp-2, HEp-2 cells, genotype A “Long” strain RSV, cytoprotection; read-out: Human RSV-A (“Long” strain) EC50
# Procedure, shortened: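 HEp-2 cells (8,000/well) given 2-fold compound dilutions in duplicate, then infected with RSV-A Long strain stock; viability read by ATPlite luminescence after 4 days. EC50 derived from cytoprotection; cytotoxicity measured on parallel uninfected plate.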
row,SMILES,EC50 [µM]
1,Cc1cccc(F)c1NC(=O)c1cc2c(o1)-c1ccccc1N(C(=O)c1cccc(-c3c[nH]nc3C3CC3)n1)CC2 [Example 275],< 0.4
2,O=C(NC1CC1)c1cc2c(s1)-c1ccccc1N(C(=O)c1cccc(N3CCOC[C@@H]3c3ccccc3)n1)CC2 [Example 276],> 0.8
3,O=C(NC1CC1)c1cc2c(s1)-c1ccccc1N(C(=O)c1cccc(N3CCOC[C@H]3c3ccccc3)n1)CC2 [Example 277],> 0.8
4,O=C(NC1CC1)c1cc2c(s1)-c1ccccc1N(C(=O)c1cccc(N3CCOc4ccc(F)cc4C3)n1)CC2 [Example 278],< 0.4
5,O=C(NC1CC1)c1cc2c(s1)-c1ccccc1N(C(=O)c1cccc(N3CCOc4ccc(Cl)cc4C3)n1)CC2 [Example 279],< 0.4
6,COc1ccc2c(c1)CN(c1cccc(C(=O)N3CCc4cc(C(=O)NC5CC5)sc4-c4ccccc43)n1)CCO2 [Example 280],< 0.4
7,O=C(NC1CC1)c1cc2c(s1)-c1ccccc1N(C(=O)c1cccc(N3CCOc4cc(Br)ccc4C3)n1)CC2 [Example 281],< 0.4
8,COc1ccc2c(c1)OCCN(c1cccc(C(=O)N3CCc4cc(C(=O)NC5CC5)sc4-c4ccccc43)n1)C2 [Example 282],< 0.4
9,O=C(NC1CC1)c1cc2c(s1)-c1ccccc1N(C(=O)c1cccc(N3CCS(=O)(=O)c4ccccc4C3)n1)CC2 [Example 283],< 0.4
10,O=C(NC1CC1)c1cc2c(s1)-c1ccccc1N(C(=O)c1cccc(N3CCOCC4(CCOCC4)C3)n1)CC2 [Example 284],< 0.4
11,O=C(NC1CC1)c1cc2c(s1)-c1ccccc1N(C(=O)c1cccc(N3CCOCC(C(=O)N4CCOCC4)C3)n1)CC2 (stereo not shown) [Example 285],> 0.8
12,CN(Cc1ccccn1)c1cccc(C(=O)N2CCc3cc(C(=O)NC4CC4)sc3-c3ccccc32)n1 [Example 286],> 0.8
13,COc1ccccc1CNc1cccc(C(=O)N2CCc3cc(C(=O)NC4CC4)sc3-c3ccccc32)n1 [Example 287],> 0.8
14,O=C(NC1CC1)c1cc2c(s1)-c1ccccc1N(C(=O)c1cccc(NCc3ccccn3)n1)CC2 [Example 288],> 0.8
15,COc1ccccc1CN(C)c1cccc(C(=O)N2CCc3cc(C(=O)NC4CC4)sc3-c3ccccc32)n1 [Example 289],> 0.8
16,O=C(NC1CC1)c1cc2c(s1)-c1ccccc1N(C(=O)c1cccc(N[C@@H]3CCOC3)n1)CC2 [Example 290],> 0.8
17,O=C(NC1CC1)c1cc2c(s1)-c1ccccc1N(C(=O)c1cccc(NCC3CCOC3)n1)CC2 (stereo not shown) [Example 291],> 0.8
18,COc1ccccc1[C@H](C)Nc1cccc(C(=O)N2CCc3cc(C(=O)NC4CC4)sc3-c3ccccc32)n1 [Example 292],> 0.8
19,CC(C)(Nc1cccc(C(=O)N2CCc3cc(C(=O)NC4CC4)sc3-c3ccccc32)n1)c1ccccn1 [Example 293],> 0.8
20,COc1ccc(CN(C)c2cccc(C(=O)N3CCc4cc(C(=O)NC5CC5)sc4-c4ccccc43)n2)cc1 [Example 294],> 0.8
21,CN(Cc1cccnc1)c1cccc(C(=O)N2CCc3cc(C(=O)NC4CC4)sc3-c3ccccc32)n1 [Example 295],> 0.8
22,COc1cccc(CN(C)c2cccc(C(=O)N3CCc4cc(C(=O)NC5CC5)sc4-c4ccccc43)n2)c1 [Example 296],> 0.8
23,O=C(NC1CC1)c1cc2c(s1)-c1ccccc1N(C(=O)c1ccc3ccc(N4CCOCC4)nc3c1)CC2 [Example 297],> 0.8

row,SMILES,EC50 [µM]
1,O=C(NC1CC1)c1cc2c(s1)-c1ccccc1N(C(=O)c1ccc3ccc(N4CCOCC4)cc3n1)CC2 [Example 298],> 0.8
2,O=C(Nc1ccccc1)c1cc2c(s1)-c1ccccc1N(C(=O)c1cccc(N3CCOc4ccccc4C3)n1)CC2 [Example 299],0.4 to 0.8
3,O=C(Nc1ccccn1)c1cc2c(s1)-c1ccccc1N(C(=O)c1cccc(N3CCOc4ccccc4C3)n1)CC2 [Example 300],> 0.8
4,Cc1cccnc1NC(=O)c1cc2c(s1)-c1ccccc1N(C(=O)c1cccc(N3CCOc4ccccc4C3)n1)CC2 [Example 301],< 0.4
5,Cn1ccnc1NC(=O)c1cc2c(s1)-c1ccccc1N(C(=O)c1cccc(N3CCOc4ccccc4C3)n1)CC2 [Example 302],> 0.8
6,O=C(Nc1ccc[nH]c1=O)c1cc2c(s1)-c1ccccc1N(C(=O)c1cccc(N3CCOc4ccccc4C3)n1)CC2 [Example 303],> 0.8
7,O=C(Nc1cccc(=O)[nH]1)c1cc2c(s1)-c1ccccc1N(C(=O)c1cccc(N3CCOc4ccccc4C3)n1)CC2 [Example 304],> 0.8
8,O=C(NCc1ccccc1)c1cc2c(s1)-c1ccccc1N(C(=O)c1cccc(N3CCOc4ccccc4C3)n1)CC2 [Example 305],0.4 to 0.8
9,O=C(NCc1ccccn1)c1cc2c(s1)-c1ccccc1N(C(=O)c1cccc(N3CCOc4ccccc4C3)n1)CC2 [Example 306],< 0.4
10,O=C(NC1CCOCC1)c1cc2c(s1)-c1ccccc1N(C(=O)c1cccc(N3CCOc4ccccc4C3)n1)CC2 [Example 307],< 0.4
11,CN1CCC(NC(=O)c2cc3c(s2)-c2ccccc2N(C(=O)c2cccc(N4CCOc5ccccc5C4)n2)CC3)CC1 [Example 308],< 0.4
12,O=C(N[C@@H]1CCOC1)c1cc2c(s1)-c1ccccc1N(C(=O)c1cccc(N3CCOc4ccccc4C3)n1)CC2 [Example 309],< 0.4
13,O=C(N[C@H]1CCOC1)c1cc2c(s1)-c1ccccc1N(C(=O)c1cccc(N3CCOc4ccccc4C3)n1)CC2 [Example 310],< 0.4
14,O=C(Nc1ccccc1)Nc1cc2c(s1)-c1ccccc1N(C(=O)c1cccc(N3CCOc4ccccc4C3)n1)CC2 [Example 311],> 0.8
15,O=C(Nc1cc2c(s1)-c1ccccc1N(C(=O)c1cccc(N3CCOc4ccccc4C3)n1)CC2)NC1CC1 [Example 312],> 0.8
16,O=C(Nc1cc2c(s1)-c1ccccc1N(C(=O)c1cccc(N3CCOc4ccccc4C3)n1)CC2)c1ccccc1 [Example 313],0.4 to 0.8
17,O=C(Nc1cc2c(s1)-c1ccccc1N(C(=O)c1cccc(N3CCOc4ccccc4C3)n1)CC2)C1CC1 [Example 314],> 0.8
18,O=C(Nc1cc2c(s1)-c1ccccc1N(C(=O)c1cccc(N3CCOc4ccccc4C3)n1)CC2)NS(=O)(=O)c1ccccc1 [Example 315],> 0.8
19,O=C(Nc1cc2c(s1)-c1ccccc1N(C(=O)c1cccc(N3CCOc4ccccc4C3)n1)CC2)NS(=O)(=O)C1CC1 [Example 316],> 0.8
20,Cc1cccc(F)c1NS(=O)(=O)c1cc2c(s1)-c1ccccc1N(C(=O)c1cccc(N3CCCOCC3)n1)CC2 [Example 317],> 0.8
21,O=C(c1cccc(N2CCCOCC2)n1)N1CCc2cc(S(=O)(=O)NC3CCOCC3)sc2-c2ccccc21 [Example 318],> 0.8
22,O=C(NC1CC1)c1cc2c(s1)-c1ccccc1N(C(=O)c1cccc(N3CCOc4ccccc43)n1)CC2 [Example 319],> 0.8
23,O=C(NC1CC1)c1cc2c(s1)-c1ccccc1N(C(=O)c1cccc(N3CCOCc4ccccc43)n1)CC2 [Example 320],> 0.8

row,SMILES,EC50 [µM]
1,COCC(C)(C)CNc1cccc(C(=O)N2CCc3cc(C(=O)NC4CC4)sc3-c3ccccc32)n1 [Example 321],> 0.8
2,COc1ccccc1C(C)(C)Nc1cccc(C(=O)N2CCc3cc(C(=O)NC4CC4)sc3-c3ccccc32)n1 [Example 322],> 0.8
3,Cc1cccc(F)c1NC(=O)c1cc2c(s1)-c1ccccc1N(C(=O)c1cccc(N3CCCOCC3)n1)CC2 [Example 323],< 0.4
4,CNC(=O)CCN(C)c1cccc(C(=O)N2CCc3cc(C(=O)Nc4c(C)cccc4F)sc3-c3ccccc32)n1 [Example 324],0.4 to 0.8
5,CCS(=O)(=O)CCN(C)c1cccc(C(=O)N2CCc3cc(C(=O)Nc4c(C)cccc4F)sc3-c3ccccc32)n1 [Example 325],< 0.4
6,Cc1cccc(F)c1NC(=O)c1cc2c(s1)-c1ccccc1N(C(=O)c1cccc(N(CCO)C3CC3)n1)CC2 [Example 326],0.4 to 0.8
7,Cc1cccc(F)c1NC(=O)c1cc2c(s1)-c1ccccc1N(C(=O)c1cccc(N(CCO)C3CCC3)n1)CC2 [Example 327],< 0.4
8,COCCN(c1cccc(C(=O)N2CCc3cc(C(=O)Nc4c(C)cccc4F)sc3-c3ccccc32)n1)C1CCC1 [Example 328],< 0.4
9,Cc1cccc(F)c1NC(=O)c1cc2c(s1)-c1ccccc1N(C(=O)c1cccc(NCCO)n1)CC2 [Example 329],> 0.8
10,CCOCCNc1cccc(C(=O)N2CCc3cc(C(=O)Nc4c(C)cccc4F)sc3-c3ccccc32)n1 [Example 330],< 0.4
11,Cc1cccc(F)c1NC(=O)c1cc2c(s1)-c1ccccc1N(C(=O)c1cccc(NCCOC(C)C)n1)CC2 [Example 331],< 0.4
12,Cc1cccc(F)c1NC(=O)c1cc2c(s1)-c1ccccc1N(C(=O)c1cccc(N3Cc4ccccc4OC(C)(C)C3)n1)CC2 [Example 332],< 0.4
13,Cc1cccc(F)c1NC(=O)c1cc2c(s1)-c1ccccc1N(C(=O)c1cccc(N(C)CCS(C)(=O)=O)n1)CC2 [Example 333],< 0.4
14,COCCCN(C)c1cccc(C(=O)N2CCc3cc(C(=O)Nc4c(C)cccc4F)sc3-c3ccccc32)n1 [Example 334],> 0.8
15,Cc1cccc(F)c1NC(=O)c1cc2c(s1)-c1ccccc1N(C(=O)c1cccc(NCc3ccco3)n1)CC2 [Example 335],< 0.4
16,Cc1cccc(F)c1NC(=O)c1cc2c(s1)-c1ccccc1N(C(=O)c1cccc(NCC3OCc4ccccc43)n1)CC2 (stereo not shown) [Example 336],< 0.4
17,Cc1cccc(F)c1NC(=O)c1cc2c(s1)-c1ccccc1N(C(=O)c1cccc(N(C)Cc3ccccn3)n1)CC2 [Example 337],< 0.4
18,Cc1cccc(F)c1NC(=O)c1cc2c(s1)-c1ccccc1N(C(=O)c1cccc(N(C)Cc3cccnc3)n1)CC2 [Example 338],< 0.4
19,Cc1cccc(F)c1NC(=O)c1cc2c(s1)-c1ccccc1N(C(=O)c1cccc(N(C)Cc3ccncc3)n1)CC2 [Example 339],< 0.4
20,Cc1cccc(F)c1NC(=O)c1cc2c(s1)-c1ccccc1N(C(=O)c1cccc(N[C@@H](C)c3ccccn3)n1)CC2 [Example 340],> 0.8
21,COc1ccccc1CN(C)c1cccc(C(=O)N2CCc3cc(C(=O)Nc4c(C)cccc4F)sc3-c3ccccc32)n1 [Example 341],< 0.4
